Assay results as given in US20100173958A1, “COMPOUNDS FOR THE INHIBITION OF DGAT1 ACTIVITY” (priority 2006, published 2010).

Target: T1, human DGAT1 (Homo sapiens, UniProt O75907)
T1 construct: made in house; host or cells: Sf9 insect cells (recombinant baculovirus); membrane fraction used
T1 sequence (O75907 1-488): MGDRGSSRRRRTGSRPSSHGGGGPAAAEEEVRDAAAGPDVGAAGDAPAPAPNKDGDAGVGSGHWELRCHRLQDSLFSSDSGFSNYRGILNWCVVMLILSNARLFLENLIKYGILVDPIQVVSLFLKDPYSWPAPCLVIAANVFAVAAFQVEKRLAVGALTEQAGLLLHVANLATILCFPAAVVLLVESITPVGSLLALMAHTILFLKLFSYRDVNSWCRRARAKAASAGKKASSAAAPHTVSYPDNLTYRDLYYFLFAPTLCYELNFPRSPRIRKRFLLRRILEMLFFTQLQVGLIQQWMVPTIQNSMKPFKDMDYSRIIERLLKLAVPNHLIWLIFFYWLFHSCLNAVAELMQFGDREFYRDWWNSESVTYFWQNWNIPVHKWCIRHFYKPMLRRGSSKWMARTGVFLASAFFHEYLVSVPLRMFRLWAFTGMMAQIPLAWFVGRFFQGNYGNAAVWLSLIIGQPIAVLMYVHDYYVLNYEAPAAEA
Assay: Human Enzyme Assay (DGAT1 inhibition)
Assay type: biochemical
Details: human DGAT1 expressed in insect cell (sf9) membranes; 14C oleoyl coenzyme A, 30 minutes at room temperature
Description: The in vitro assay to identify DGAT1 inhibitors uses human DGAT1 expressed in insect cell membranes as the enzyme source (Proc. Natl. Acad. Sci. 1998, 95, 13018-13023). Briefly, sf9 cells were infected with recombinant baculovirus containing human DGAT1 coding sequences and harvested after 48 h. Cells were lysed by sonication and membranes isolated by centrifuging at 28000 rpm for 1 h at 4° C. on a 41% sucrose gradient. The membrane fraction at the interphase was collected, washed, and stored in liquid nitrogen.
DGAT1 activity was assayed by a modification of the method described by Coleman (Methods in Enzymology 1992, 209, 98-102). Compound at 1-10 μM was incubated with 0.4 μg membrane protein, 5 mM MgCl2, and 100 μM 1,2 dioleoyl-sn-glycerol in a total assay volume of 200 μl in plastic tubes. The reaction was started by adding ^14C oleoyl coenzyme A (30 μM final concentration) and incubated at room temperature for 30 minutes. The reaction was stopped by adding 1.5 mL 2-propanol:heptane:water (80:20:2). Radioactive triolein product was separated into the organic phase by adding 1 mL heptane and 0.5 mL 0.1 M carbonate buffer pH 9.5. DGAT1 activity was quantified by counting aliquots of the upper heptane layer by liquid scintillography.

Structure (SMILES): O=C(Nc1ccc(S(=O)(=O)C2CCC(C(=O)O)CC2)cc1)c1nnc(Nc2cc(F)c(F)c(F)c2)o1 (mixture of isomers) [Example 1, 4-[4-[[5-[(3,4,5-Trifluorophenyl)amino]1,3,4-oxadiazole-2-carbonyl]amino]phenyl]sulfonylcyclohexane-1-carboxylic acid]
- IC50: 290 nM
